Marks after values point to notes of the source that are not given here.
System: full thickness skin
Assay: Whole genome array of skin gene expression after topical DBP (time course)
Assay type: in vivo, C57BL/6J mice
Protocol: Mice: C57BL/6J female mice obtained from The Jackson Laboratory were used between 8 and 12 weeks of age.
Treatment: Mice were untreated or treated topically on the dorsal side of each ear with […] of dibutylphthalate (DBP). At the designated time points after treatment, the animals were euthanized and the ears washed with 70% isopropanol. Full thickness skin was obtained from the dorsal side of both ears and placed immediately in liquid nitrogen. The time between euthanasia and placement of both skin samples in liquid nitrogen was less than 1 minute. Each sample for RNA extraction contained two dorsal ear skin samples obtained from a single mouse both of whose ears received the same treatment.
RNA Extraction: While in liquid nitrogen, the skin was pulverized with a motorized mortar and pestle (CryoGrinder), transferred by inversion of the mortar directly into 1.5 ml cryogenic vials (Nalgene) and stored in liquid nitrogen until RNA extraction. Total RNA from both ears was extracted by homogenization (Pro200) in TRIzol Reagent (Invitrogen) with 7.5 μg of RNase-free glycogen added to the mixture, according to the manufacturer's directions. The RNA was purified on a solid phase RNeasy MinElute Cleanup column (Qiagen) and eluted with 17 μL of RNase-free water. The samples were stored at −20° C. until use.
Quantification of RNA: RNA yields were quantified by UV absorption using a NanoDrop NG-1000 spectrophotometer, where 1 AU 260 equals 40 μg RNA/ml. Purity was estimated by the 260 and 280 nm absorbance ratio; values between 1.7 and 2.1 were considered acceptable.
Assessment of RNA Quality: The quality of sample RNA was assessed using a RNA 6000 LABCHIP Kit on an Agilent 2100 Bioanalyzer. The Bioanalyzer determines the integrity/purity of the RNA samples and permits the screening of total and mRNA sample degradation and ribosomal RNA contamination. An RNA 6000 ladder was also loaded on a specified well and used as a reference for data analysis and a built-in quality control measure. The quality and integrity of the RNA was determined through visual inspection of each electropherogram. In general, only samples with a RIN (RNA integrity number) of 7 or greater, as determined by the Bioanalyzer, were used for gene arrays. This quality control analysis was repeated following the labeling procedure to ensure that the probes were efficiently labeled and had the correct size before hybridization to the chips. All samples that were run on genome wide arrays were obtained as independent duplicates from two individual mice.
Microarray Data Interpretation: Gene expression was compared between untreated and treated total RNA samples. “Transition” data, which represent the change in expression level for a given gene, are presented as a “weighted difference.” Changes in gene expression level were considered to be significant when the adjusted p values were less than […]. The “gene expression signature” arbitrarily includes only those genes that were transcribed with a weighted increase of 2.0 or greater, which was sustained over the subsequent time points tested.
The weighted difference is a metric that takes into account both the variability between different time-points and the variability between replicates at the same time-point. The calculations are performed for each time-point transition, i.e., 30 minutes vs. 1 hour, 1 hour vs. 2 hours, etc. There are two steps to the calculation: the calculation of a modified Euclidean difference between the two time-points, and the calculation of the Euclidean difference between the replicates within each time-point. The first measure is an unweighted difference, while the final metric given in the spreadsheet “weights” this difference by taking into account the second measure.
In a Euclidean difference calculation, each data point is considered as a vector in a multi-dimensional space, and the actual straight-line distance between the data points is calculated. […]

**Q.** Which “Ier3 Change in Gene Expression (Weighted Difference)” value (30 min to 1 hr Transition) does the source give for `CCCCOC(=O)c1ccccc1C(=O)OCCCC` [DBP, dibutylphthalate] here?
**A.** Its value is 7.145.

**Q.** And the “Il10ra Change in Gene Expression (Weighted Difference)” value (30 min to 1 hr Transition)?
**A.** Its value is 0.6152.

**Q.** What about the “Jun Change in Gene Expression (Weighted Difference)” value (30 min to 1 hr Transition) of the same compound?
**A.** The value was 0.7234.

**Q.** What about the “Junb Change in Gene Expression (Weighted Difference)” value (30 min to 1 hr Transition) of the same compound?
**A.** Its value is 2.771.

**Q.** What about the “LOC100046066 Change in Gene Expression (Weighted Difference)” value (30 min to 1 hr Transition) of the same compound?
**A.** Its value is 2.144.

**Q.** And the “Madcam1 Change in Gene Expression (Weighted Difference)” value (30 min to 1 hr Transition)?
**A.** Its value is 0.046.

**Q.** What about the “Med17 Change in Gene Expression (Weighted Difference)” value (30 min to 1 hr Transition) of the same compound?
**A.** Its value is 0.06201.

**Q.** And the “Mkks Change in Gene Expression (Weighted Difference)” value (30 min to 1 hr Transition)?
**A.** The value was 0.2811.

**Q.** What about the “Mndal Change in Gene Expression (Weighted Difference)” value (30 min to 1 hr Transition) of the same compound?
**A.** The value was 0.3272.

**Q.** And the “Myc Change in Gene Expression (Weighted Difference)” value (30 min to 1 hr Transition)?
**A.** The value was 1.895.

**Q.** What about the “N6amt2 Change in Gene Expression (Weighted Difference)” value (30 min to 1 hr Transition) of the same compound?
**A.** Its value is 0.0833.

**Q.** What about the “Nr4a1 Change in Gene Expression (Weighted Difference)” value (30 min to 1 hr Transition) of the same compound?
**A.** Its value is 1.556.

**Q.** What about the “P2ry1 Change in Gene Expression (Weighted Difference)” value (30 min to 1 hr Transition) of the same compound?
**A.** The value was 1.47.

**Q.** What about the “Prf1 Change in Gene Expression (Weighted Difference)” value (30 min to 1 hr Transition) of the same compound?
**A.** The value was 0.5182.

**Q.** And the “Sik1 Change in Gene Expression (Weighted Difference)” value (30 min to 1 hr Transition)?
**A.** The value was 0.7241.

**Q.** And the “Slc39a8 Change in Gene Expression (Weighted Difference)” value (30 min to 1 hr Transition)?
**A.** Its value is 2.304.

**Q.** What about the “Tmed3 Change in Gene Expression (Weighted Difference)” value (30 min to 1 hr Transition) of the same compound?
**A.** The value was −0.1953.

**Q.** What about the “Zfp36 Change in Gene Expression (Weighted Difference)” value (30 min to 1 hr Transition) of the same compound?
**A.** Its value is 2.8.

**Q.** What about the “% Shared (DBP-induced genes also TLR-induced)” value (1 hr) of the same compound?
**A.** The value was 69%.

**Q.** And the “DBP Unique genes, number” value (1 hr)?
**A.** Its value is 26.

**Q.** What about the “DBP-Induced genes (≧2x Increased Expression), number” value (1 hr) of the same compound?
**A.** Its value is 83.

**Q.** And the “TLR-Induced among DBP-induced genes, number” value (1 hr)?
**A.** Its value is 57^#.

**Q.** And the “Acot5 Change in Gene Expression (Weighted Difference)” value (1 hr to 2 hr Transition)?
**A.** Its value is 12.15.

**Q.** And the “Akr1c18 Change in Gene Expression (Weighted Difference)” value (1 hr to 2 hr Transition)?
**A.** Its value is −0.2471.

**Q.** What about the “Atp2c2 Change in Gene Expression (Weighted Difference)” value (1 hr to 2 hr Transition) of the same compound?
**A.** The value was 0.331.

**Q.** And the “Btg2 Change in Gene Expression (Weighted Difference)” value (1 hr to 2 hr Transition)?
**A.** Its value is −0.01005.

**Q.** And the “Ccr4 Change in Gene Expression (Weighted Difference)” value (1 hr to 2 hr Transition)?
**A.** Its value is −0.03096.

**Q.** And the “Cdh10 Change in Gene Expression (Weighted Difference)” value (1 hr to 2 hr Transition)?
**A.** Its value is −0.1519.

**Q.** And the “Cish Change in Gene Expression (Weighted Difference)” value (1 hr to 2 hr Transition)?
**A.** The value was 0.9334.

**Q.** What about the “Cox17 Change in Gene Expression (Weighted Difference)” value (1 hr to 2 hr Transition) of the same compound?
**A.** Its value is 0.1604.

**Q.** What about the “Cysltr1 Change in Gene Expression (Weighted Difference)” value (1 hr to 2 hr Transition) of the same compound?
**A.** Its value is −1.794.

**Q.** What about the “Egr1 Change in Gene Expression (Weighted Difference)” value (1 hr to 2 hr Transition) of the same compound?
**A.** The value was −0.2127.

**Q.** And the “Egr2 Change in Gene Expression (Weighted Difference)” value (1 hr to 2 hr Transition)?
**A.** The value was −0.1057.

**Q.** And the “Frk Change in Gene Expression (Weighted Difference)” value (1 hr to 2 hr Transition)?
**A.** Its value is −0.2672.

**Q.** And the “Gbp8 Change in Gene Expression (Weighted Difference)” value (1 hr to 2 hr Transition)?
**A.** Its value is −1.039.

**Q.** What about the “Gem Change in Gene Expression (Weighted Difference)” value (1 hr to 2 hr Transition) of the same compound?
**A.** The value was 0.6484.

**Q.** And the “Gimap7 Change in Gene Expression (Weighted Difference)” value (1 hr to 2 hr Transition)?
**A.** The value was 0.1331.

**Q.** What about the “Ier3 Change in Gene Expression (Weighted Difference)” value (1 hr to 2 hr Transition) of the same compound?
**A.** The value was 0.7786.

**Q.** What about the “Il10ra Change in Gene Expression (Weighted Difference)” value (1 hr to 2 hr Transition) of the same compound?
**A.** Its value is 0.1326.

**Q.** And the “Jun Change in Gene Expression (Weighted Difference)” value (1 hr to 2 hr Transition)?
**A.** Its value is −0.001533.

**Q.** What about the “Junb Change in Gene Expression (Weighted Difference)” value (1 hr to 2 hr Transition) of the same compound?
**A.** The value was −0.0754.

**Q.** What about the “LOC100046066 Change in Gene Expression (Weighted Difference)” value (1 hr to 2 hr Transition) of the same compound?
**A.** The value was −0.8577.

**Q.** And the “Madcam1 Change in Gene Expression (Weighted Difference)” value (1 hr to 2 hr Transition)?
**A.** Its value is −0.04597.

**Q.** And the “Med17 Change in Gene Expression (Weighted Difference)” value (1 hr to 2 hr Transition)?
**A.** Its value is 0.1073.

**Q.** What about the “Mkks Change in Gene Expression (Weighted Difference)” value (1 hr to 2 hr Transition) of the same compound?
**A.** The value was −0.1657.

**Q.** What about the “Mndal Change in Gene Expression (Weighted Difference)” value (1 hr to 2 hr Transition) of the same compound?
**A.** Its value is 0.5733.

**Q.** And the “Myc Change in Gene Expression (Weighted Difference)” value (1 hr to 2 hr Transition)?
**A.** The value was −0.01449.

**Q.** And the “N6amt2 Change in Gene Expression (Weighted Difference)” value (1 hr to 2 hr Transition)?
**A.** Its value is −0.07791.

**Q.** What about the “Nr4a1 Change in Gene Expression (Weighted Difference)” value (1 hr to 2 hr Transition) of the same compound?
**A.** Its value is −0.4734.

**Q.** What about the “P2ry1 Change in Gene Expression (Weighted Difference)” value (1 hr to 2 hr Transition) of the same compound?
**A.** The value was −0.5171.

**Q.** And the “Prf1 Change in Gene Expression (Weighted Difference)” value (1 hr to 2 hr Transition)?
**A.** Its value is −0.3117.

**Q.** What about the “Sik1 Change in Gene Expression (Weighted Difference)” value (1 hr to 2 hr Transition) of the same compound?
**A.** The value was 0.007769.

**Q.** What about the “Slc39a8 Change in Gene Expression (Weighted Difference)” value (1 hr to 2 hr Transition) of the same compound?
**A.** Its value is 1.188.

**Q.** And the “Tmed3 Change in Gene Expression (Weighted Difference)” value (1 hr to 2 hr Transition)?
**A.** Its value is −0.2575.

**Q.** What about the “Zfp36 Change in Gene Expression (Weighted Difference)” value (1 hr to 2 hr Transition) of the same compound?
**A.** The value was 0.1025.

**Q.** What about the “% Shared (DBP-induced genes also TLR-induced)” value (2 hr) of the same compound?
**A.** The value was 63%.
